Test results reported in DBAASP.
In brackets after ≈: the same amount, converted by molar mass. Several values for one entry are separate records, joined by “and”; a condition that tells them apart may be missing. Equal values may be shown once.

Columns and labels:
Test in all cases: ≥ marks a high value that may be exact or a test limit, other limits are often not marked, values filed in µg/mL are converted to µM
[1] = tested on: Candida albicans ATCC 10231
[2] = tested on: Yersinia pseudotuberculosis YPIII
Escherichia coli D21 = tested on: Escherichia coli D21
[3] = tested on: Phytophthora nicotianae PG344
[4] = tested on: Pseudomonas syringae pv. tabaci
Candida tropicalis = tested on: Candida tropicalis
Bacillus megaterium Bm11 = tested on: Bacillus megaterium Bm11
Mammaliicoccus lentus = tested on: Mammaliicoccus lentus
Micrococcus luteus = tested on: Micrococcus luteus
[5] = tested on: Staphylococcus aureus CCARM 3543
[6] = tested on: Bacillus cereus ATCC 11778
Candida albicans MDM8 = tested on: Candida albicans MDM8
[7] = tested on: Klebsiella pneumoniae ATCC 13883
Proteus mirabilis = tested on: Proteus mirabilis
[8] = tested on: Serratia marcescens ATCC 4112
[9] = tested on: Acinetobacter baumannii ATCC 19606
[10] = tested on: Escherichia coli KCTC 1682
[11] = tested on: Pseudomonas aeruginosa PAO1
Escherichia coli BL21 = tested on: Escherichia coli BL21
[12] = tested on: Klebsiella aerogenes ATCC 13048
[13] = tested on: Bacillus subtilis CCT 2471
Escherichia coli SBS 363 = tested on: Escherichia coli SBS 363
[14] = tested on: Pseudomonas aeruginosa ATCC 15442
Bacillus thuringiensis = tested on: Bacillus thuringiensis
[15] = tested on: Klebsiella oxytoca CIP 79.32
[16] = tested on: Staphylococcus aureus ATCC 6538
[17] = tested on: Bacillus megaterium ATCC 10778
Escherichia coli AIG 221 = tested on: Escherichia coli AIG 221
[18] = tested on: Pseudomonas aeruginosa ATCC 27853
[19] = tested on: Escherichia coli ATCC 11775
[20] = tested on: Pseudomonas aeruginosa NCIB 10421
[21] = tested on: Candida albicans ATCC 18804
[22] = tested on: Salmonella typhimurium KCTC 1926
[23] = tested on: Staphylococcus saprophyticus
[24] = tested on: Pseudomonas aeruginosa KCTC 1637
[25] = tested on: Escherichia coli ATCC 10536
[26] = tested on: Staphylococcus aureus ATCC 25293
[27] = tested on: Staphylococcus aureus CCARM 3001
[28] = tested on: Candida tropicalis IOC 4560
[29] = tested on: Staphylococcus aureus ATCC 12600
Micrococcus luteus A270 = tested on: Micrococcus luteus A270
[30] = tested on: Pseudomonas aeruginosa CCARM 2095
[31] = tested on: Escherichia coli CCT 1371
Escherichia coli AIG 222 = tested on: Escherichia coli AIG 222
[32] = tested on: Salmonella enterica subsp. enterica serovar Typhimurium ATCC 14028
[33] = tested on: Staphylococcus aureus ATCC 25923
[34] = tested on: Staphylococcus aureus KCTC 1621
[35] = tested on: Staphylococcus epidermidis ATCC 12228
[36] = tested on: Pseudomonas aeruginosa ATCC BAA-427
[37] = tested on: Staphylococcus epidermidis KCTC 1917
Yersinia pestis KIM pYV = tested on: Yersinia pestis KIM pYV
[38] = tested on: Pseudomonas aeruginosa CUN 4158-02
[39] = tested on: Escherichia coli ATCC 25922
Staphylococcus aureus = tested on: Staphylococcus aureus
[40] = tested on: Staphylococcus aureus ATCC 43300
[41] = tested on: Brucella abortus 9.49 (per-)
[42] = tested on: Bordetella bronchiseptica CUN 11844-99
[43] = tested on: Staphylococcus aureus ΔmprFpRBsyn
[44] = tested on: Escherichia coli ATCC 23716
[45] = tested on: Staphylococcus aureus ΔmprF

Work on `CC(C)C[C@H](NC(=O)[C@H](C)NC(=O)CN)C(=O)N[C@@H](CCCN=C(N)N)C(=O)NCC(=O)N[C@H]1CSSC[C@@H](C(=O)N[C@@H](CCCCN)C(N)=O)NC(=O)[C@@H]2CCCN2C(=O)[C@H](CCCCN)NC(=O)[C@@H]2CCCN2C(=O)[C@@H]2CCCN2C(=O)[C@H](Cc2ccc(O)cc2)NC(=O)[C@H](CO)NC(=O)[C@H](CCCCN)NC(=O)[C@H]([C@@H](C)O)NC(=O)[C@H](Cc2c[nH]c3ccccc23)NC1=O` [GALRGCWTKSYPPKPCK] yielded an MIC [1] of 22 µM (≈ 41.6 µg/mL), an MIC [2] of 5 µM (≈ 9.45 µg/mL) and an MIC (Escherichia coli D21) of 30 µM (≈ 56.7 µg/mL). The MIC [3] was 16 µM (≈ 30.2 µg/mL), the MIC [4] was 16 µM (≈ 30.2 µg/mL) and the MIC (Candida tropicalis) was 14 µM (≈ 26.5 µg/mL). It also gave an MIC (Bacillus megaterium Bm11) of 3 µM (≈ 5.67 µg/mL), an MIC (Mammaliicoccus lentus) of 10 µM (≈ 18.9 µg/mL) and an MIC (Micrococcus luteus) of 8 µM (≈ 15.1 µg/mL).

With `CC[C@H](C)[C@H](N)C(=O)N[C@@H](CC(C)C)C(=O)NCC(=O)N[C@@H](CCCCN)C(=O)N[C@H](C(=O)N[C@@H](Cc1c[nH]c2ccccc12)C(=O)N[C@@H](CCC(=O)O)C(=O)NCC(=O)N[C@H](C(=O)N[C@@H](CCCCN)C(=O)N[C@@H](CO)C(=O)N[C@@H](CC(C)C)C(=O)N[C@@H](Cc1ccccc1)C(N)=O)[C@@H](C)CC)[C@@H](C)CC` [ILGKIWEGIKSLF] the MIC [5] was 1 µM (≈ 1.5 µg/mL), the MIC [6] was ≥ 66.5 µM and the MIC (Candida albicans MDM8) was 3.13 µM (≈ 4.7 µg/mL). For the same compound, the MIC [7] was ≥ 64 µM, the MIC (Proteus mirabilis) was ≥ 133 µM and the MIC [8] was 0.36 µM (≈ 0.541 µg/mL). For the same compound, the MIC [9] was 8 µM (≈ 12 µg/mL), the MIC [10] was 4 µM (≈ 6.01 µg/mL) and the MIC [11] was > 128 µM. For the same compound, the MIC (Escherichia coli BL21) was 4 µM (≈ 6.01 µg/mL), the MIC [12] was ≥ 66.5 µM and the MIC [13] was 6.65 µM (≈ 9.99 µg/mL). The MIC (Escherichia coli SBS 363) was 1.56 µM (≈ 2.34 µg/mL), the MIC [14] was ≥ 133 µM and the MIC (Bacillus thuringiensis) was 16.6 µM (≈ 25 µg/mL). The MIC [15] was 16 µM (≈ 24 µg/mL), the MIC [16] was 3.32 µM (≈ 5 µg/mL) and the MIC [17] was 0.78 µM (≈ 1.17 µg/mL). The MIC (Escherichia coli AIG 221) was ≥ 32 µM, the MIC [18] was 66.5 µM (≈ 99.9 µg/mL) and the MIC [19] was ≥ 32 µM. For the same compound, the MIC [20] was ≥ 50 µM, the MIC [21] was 12.5 µM (≈ 18.8 µg/mL) and the MIC [22] was 2 µM (≈ 3.01 µg/mL). For the same compound, the MIC [23] was 0.665 µM (≈ 0.999 µg/mL), the MIC [24] was 2 µM (≈ 3.01 µg/mL) and the MIC [25] was 3 µM (≈ 4.51 µg/mL). For the same compound, the MIC [26] was 0.665 µM (≈ 0.999 µg/mL), the MIC [27] was 1 µM (≈ 1.5 µg/mL) and the MIC [28] was 1.56 µM (≈ 2.34 µg/mL). It also gave an MIC [29] of 8 µM (≈ 12 µg/mL), an MIC (Micrococcus luteus A270) of 0.78 µM (≈ 1.17 µg/mL) and an MIC [30] of 1 µM (≈ 1.5 µg/mL). For the same compound, the MIC [31] was 3.32 µM (≈ 5 µg/mL), the MIC (Escherichia coli AIG 222) was 16 µM (≈ 24 µg/mL) and the MIC [32] was 66.5 µM (≈ 99.9 µg/mL). For the same compound, the MIC [33] was 2 µM (≈ 3.01 µg/mL), the MIC [34] was 2 µM (≈ 3.01 µg/mL) and the MIC [35] was 8 µM (≈ 12 µg/mL). It also gave an MIC [36] of 4 µM (≈ 6.01 µg/mL) and an MIC [37] of 2 µM (≈ 3.01 µg/mL).

`CC[C@H](C)[C@H](NC(=O)[C@H](CCCCN)NC(=O)[C@H](CCCCN)NC(=O)[C@H](CO)NC(=O)[C@@H](NC(=O)CNC(=O)[C@H](CCCN=C(N)N)NC(=O)[C@H](CC(C)C)NC(=O)[C@@H](NC(=O)[C@@H](N)CCCCN)[C@@H](C)CC)C(C)C)C(=O)N[C@@H](CCSC)C(=O)N[C@@H](CCCN=C(N)N)C(=O)N[C@H](C(=O)N[C@@H](Cc1ccccc1)C(=O)N[C@@H](CC(C)C)C(=O)N[C@@H](CCCN=C(N)N)C(=O)N[C@@H](CCCN=C(N)N)C(=O)N[C@H](C(=O)N[C@@H](CC(C)C)C(=O)N[C@H](C(=O)NCC(=O)N[C@@H](CCCCN)C(=O)N[C@@H](CCCCN)C(N)=O)[C@@H](C)O)[C@@H](C)CC)[C@@H](C)O` [KILRGVSKKIMRTFLRRILTGKK] showed an MIC (Yersinia pestis KIM pYV) of 5.83 µM (≈ 16 µg/mL), an MIC [9] of 1.46 µM (≈ 4 µg/mL) and an MIC [38] of 1.46 µM (≈ 4 µg/mL). The MIC [39] was 1.46 µM (≈ 4 µg/mL), the MIC (Staphylococcus aureus) was 5.83 µM (≈ 16 µg/mL) and the MIC [40] was 23.3 µM (≈ 64 µg/mL). For the same compound, the MIC [41] was 1.46 µM (≈ 4 µg/mL), the MIC [42] was 0.729 µM (≈ 2 µg/mL) and the MIC [43] was 1.46 µM (≈ 4 µg/mL). For the same compound, the MIC [44] was 2.92 µM and 6.93 µM and the MIC [45] was 1.46 µM (≈ 4 µg/mL).
